What was measured:
[1] = system: MCF7; experiment: Antiproliferative activity against human MCF7 cells after 3 days by MTT assay; format: functional, cell-based; conditions: MCF7, 72 h
[2] = target: MAP kinase p38 (Homo sapiens, UniProt O15264+Q15759+Q16539+P53778); experiment: Inhibition of p38 MAPK (unknown origin) using ATF2 as substrate measured after 15 by ELISA
[3] = system: MCF7; experiment: Potency index, ratio of Doxorubicin IC50 to compound IC50 against human MCF7 cells; format: functional
[4] = system: MCF7; experiment: Induction of apoptosis in human MCF7 cells assessed as viable cells after 24 hrs by Annexin-V/propidium iodide staining based FACS analysis (reference value: 92.7%); format: functional
[5] = system: MCF7; experiment: Induction of apoptosis in human MCF7 cells assessed as late apoptotic cells after 24 hrs by Annexin-V/propidium iodide staining based FACS analysis (reference value: 4.3%); format: functional
[6] = system: MCF7; experiment: Cell cycle arrest in human MCF7 cells assessed as accumulation at S phase after 24 hrs by propidium iodide staining-based flow cytometric method (reference value: 25.1%); format: functional
[7] = system: MCF7; experiment: Induction of apoptosis in human MCF7 cells assessed as necrotic cells after 24 hrs by Annexin-V/propidium iodide staining based FACS analysis (reference value: 0.3%); format: functional
[8] = system: MCF7; experiment: Induction of apoptosis in human MCF7 cells assessed as early apoptotic cells after 24 hrs by Annexin-V/propidium iodide staining based FACS analysis (reference value: 2.7%); format: functional
[9] = system: MCF7; experiment: Cell cycle arrest in human MCF7 cells assessed as accumulation at G1 phase after 24 hrs by propidium iodide staining-based flow cytometric method (reference value: 67.2%); format: functional
[10] = system: MCF7; experiment: Induction of apoptosis in human MCF7 cells assessed as increase in caspase3 level at 0.007 uM after 24 hrs by ELISA; format: functional
[11] = system: MCF7; experiment: Cell cycle arrest in human MCF7 cells assessed as accumulation at G2 phase after 24 hrs by propidium iodide staining-based flow cytometric method (reference value: 6.4%); format: functional
[12] = system: MCF7; experiment: Induction of apoptosis in human MCF7 cells assessed as increase in caspase9 level at 0.007 uM after 24 hrs by ELISA; format: functional

COc1ccc(-c2cc(-c3c(C)oc4c(OC)c5occc5c(OC)c4c3=O)[nH]c(=N)c2C#N)cc1OC
IC50 [1]: 10 nM
IC50 [2]: 310 nM

COc1c2occc2c(OC)c2c(=O)c(C3=NN(c4ccccc4)C(c4ccc(F)cc4)C3)c(C)oc12 (centres undefined)
IC50 [1]: 40 nM
IC50 [2]: 1090 nM

COc1ccc(-c2cc(-c3c(C)oc4c(OC)c5occc5c(OC)c4c3=O)nc(=S)[nH]2)cc1OC
IC50 [1]: 50 nM
IC50 [2]: 1390 nM

COc1ccc(-c2cc(-c3c(C)oc4cc5occc5c(OC)c4c3=O)[nH]c(=N)c2C#N)cc1OC
IC50 [1]: 50 nM
IC50 [2]: 720 nM

COc1ccc(-c2cc(-c3c(C)oc4c(OC)c5occc5c(OC)c4c3=O)nc(=O)[nH]2)cc1OC
IC50 [1]: 80 nM

COc1c2occc2c(OC)c2c(=O)c(C3=NN(C(C)=O)C(c4ccc(F)cc4)C3)c(C)oc12 (centres undefined)
IC50 [1]: 150 nM

COc1c2occc2c(OC)c2c(=O)c(C3=CC(c4ccc(F)cc4)=C4C(N)=NC=NC4N3)c(C)oc12 (centres undefined)
Ratio IC50 [3]: 3.6
IC50 [1]: 170 nM

COc1ccc(-c2cc(-c3c(C)oc4cc5occc5c(OC)c4c3=O)[nH]c(=O)c2C#N)cc1OC
IC50 [1]: 140 nM

COc1c2occc2c(OC)c2c(=O)c(C3=CC(c4ccc(F)cc4)NO3)c(C)oc12 (centres undefined)
IC50 [1]: 40 nM
IC50 [2]: 860 nM

COc1c2occc2c(OC)c2c(=O)c(-c3cc(-c4ccc(F)cc4)c(C#N)c(=N)[nH]3)c(C)oc12
IC50 [1]: 20 nM
IC50 [2]: 630 nM

COc1c2occc2c(OC)c2c(=O)c(-c3cc(-c4ccc(F)cc4)[nH]c(=S)n3)c(C)oc12
IC50 [1]: 20 nM
IC50 [2]: 380 nM

COc1c2ccoc2cc2oc(C)c(-c3cc(-c4ccc(F)cc4)c(C#N)c(=N)[nH]3)c(=O)c12
IC50 [1]: 40 nM
IC50 [2]: 190 nM

COc1c2occc2c(OC)c2c(=O)c(-c3cc(-c4ccc(F)cc4)c(C#N)c(=O)[nH]3)c(C)oc12
Ratio IC50 [3]: 6
IC50 [1]: 100 nM

COc1ccc(C2CC(c3c(C)oc4c(OC)c5occc5c(OC)c4c3=O)=NN2C(C)=O)cc1OC (centres undefined)
Activity [4]: 64.1%
Activity [5]: 15.2%
Activity [6]: 24.3%
Activity [7]: 3.3%
IC50 [1]: 7 nM
Activity [8]: 17.4%
Activity [9]: 31.2%
Activity [10]: 446.6 ng/mL
Activity [11]: 21.2%
Activity [12]: 16.39 ng/mL
IC50 [2]: 670 nM

COc1c2occc2c(OC)c2c(=O)c(-c3cc(-c4ccc(F)cc4)[nH]c(=O)n3)c(C)oc12
IC50 [1]: 80 nM

COc1c2ccoc2cc2oc(C)c(-c3cc(-c4ccc(F)cc4)c(C#N)c(=O)[nH]3)c(=O)c12
IC50 [1]: 30 nM
IC50 [2]: 230 nM

COc1ccc(C2C=C(c3c(C)oc4c(OC)c5occc5c(OC)c4c3=O)ON2)cc1OC (centres undefined)
IC50 [1]: 50 nM
IC50 [2]: 1090 nM
